IC50 data for ten compounds are collected here from US8445510B2, “Fused bicyclic kinase inhibitors” (OSI Pharmaceuticals, LLC, priority 2011, dated 2013).

Some results are limits rather than exact numbers.

Common to all, as to format: cell-based
The test system of one test is Karpas-299 cells. Kind of test: Karpas-299 cell proliferation assay (CellTiter-Glo). The note with it: Homo sapiens, 72 h; Karpas-299 cell line (NPM-ALK); 3 days incubation; at least duplicate experiments; read-out: Prolif. IC50. How it is done:
The effect of inhibitors on the proliferation of Karpas-299 cells (DSMZ no. ACC 31) was determined using the following protocol. Karpas-299 cells were plated in 96-well white tissue culture treated plates (Corning 3917) in growth medium (RPMI, 10% FCS) at a density of 5000 cells/well in a total volume of 135 μL and incubated at 37° C., 5% CO2, 95% humidity overnight. The following day, one-tenth volume of a 10× concentration of compounds was added to the wells in an 8-point dilution series. Compounds were serially diluted (1:4) in DMSO from a 10 mM stock solution prior to dilution in growth media to the 10× working concentrations (5% DMSO). Final concentration of DMSO in compound-treated wells was 0.5%. Control wells containing growth media or growth media/0.5% DMSO were included in all test plates. […] Once the compounds were added to the cells, plates were incubated for 3 days at 37° C., 5% CO2 at 95% humidity. After 72 hours, all cells and reagents were equilibrated to room temperature and 15 μL of CellTiter-Glo reagent (Promega # G7573) was added to each well. Plates were shaken on a platform for 10 minutes at room temperature prior to reading luminescence. The value of the signal of the control wells was set as 100% growth and growth inhibition was expressed as percent of control. IC50 values were determined from the percent of control data using a standard four-parameter curve fit equation.
The IC50 values of exemplary compounds of the present invention determined in a cell proliferation assay using the Karpas-299 cell line according to the procedures described herein in at least duplicate experiments are abbreviated as follows and are shown in Table 5: A, IC50≦0.05 μM; B, 0.05 μM<IC50≦0.2 μM; C, 0.2 μM<IC50≦1 μM; D, IC50>1 μM; ND, not determined. The Example # of Table 5 corresponds to the compound example number as illustrated in the Examples section.
The Karpas-299 cell line has a t(2; 5) chromosomal translocation and expresses the NPM-ALK fusion protein, resulting in constitutively active ALK. […] Ther. 6(12):3314-22 (2007)]. With this “ALK-driven” cell line, the cell proliferation IC50 values can thus be used as surrogate for the p-ALK cell mechanistic IC50 values.

Another test concerns MKN45 cells. The experiment in a line: MKN45 cell proliferation assay (CellTiter-Glo). Particulars: Homo sapiens, MKN-45, 72 h; MKN45 cell line; 3 days incubation; at least duplicate experiments; read-out: Prolif. IC50. How it is done: The effect of inhibitors on the proliferation of MKN45 cells was determined using the following protocol. MKN45 cells were plated in Corning 3917 96-well white tissue culture treated plates in growth medium (RPMI, 10% FCS) at a density of 5000 cells/well in a total volume of 135 μL and incubated at 37° C., 5% CO2, 95% humidity overnight. The following day, one-tenth volume of a 10× concentration of compounds was added to the wells in an 8-point dilution series. The dilution series was composed of an initial 1:5 dilution of a 10 mM stock of compound in DMSO, followed by serial 1:4 dilutions in DMSO, then a 1:20 dilution in growth medium prior to the 1:10 dilution into the cell plate. […] The typical dilution range is 10 μM to 0.6 nM. Once the compound was added to the cells, plates were incubated for 3 days at 37° C., 5% CO2 at 95% humidity. On the third day, after allowing all cells and reagents to come to room temperature, 25 μL of CellTiter-Glo reagent (Promega #G7573) was added to the wells. Plates were shaken on a platform for 10 minutes prior to reading luminescence for 0.1 seconds. The signal of the control wells was taken as 100% growth and growth inhibition was expressed as percent of control. IC50 values were determined from the percent of control data using a standard four-parameter model.
The IC50 values of exemplary compounds of the present invention determined in a cell proliferation assay using the MKN45 cell line according to the procedures described herein in at least duplicate experiments are abbreviated as follows and are shown in Table 2: A, IC50≦0.05 μM; B, 0.05 μM<IC50≦0.2 μM; C, 0.2 μM<IC50≦1 μM; D, IC50>1 μM; ND, not determined. The Example # of Table 2 corresponds to the compound example number as illustrated in the Examples section.
Treatment of this cell line with a selective c-MET inhibitor led to induction of apoptosis and inhibition of proliferation, whereas non-MET-amplified cell lines were not affected [Smolen et al., Proc. Natl. Acad. Sci. USA, 103(7):2316-2321 (2006)]. This cell line is thus “driven” by c-MET, and antiproliferative effects correlate very well with the inhibition of c-MET phosphorylation so that the cell proliferation IC50, values can be used as surrogate for the c-MET cell mechanistic IC50, values. Under the assay conditions described herein, the IC50 values correlate nearly 1:1.

The next test deals with T1, RON (Homo sapiens, UniProt Q04912).
T1 sequence (Q04912 913-1400): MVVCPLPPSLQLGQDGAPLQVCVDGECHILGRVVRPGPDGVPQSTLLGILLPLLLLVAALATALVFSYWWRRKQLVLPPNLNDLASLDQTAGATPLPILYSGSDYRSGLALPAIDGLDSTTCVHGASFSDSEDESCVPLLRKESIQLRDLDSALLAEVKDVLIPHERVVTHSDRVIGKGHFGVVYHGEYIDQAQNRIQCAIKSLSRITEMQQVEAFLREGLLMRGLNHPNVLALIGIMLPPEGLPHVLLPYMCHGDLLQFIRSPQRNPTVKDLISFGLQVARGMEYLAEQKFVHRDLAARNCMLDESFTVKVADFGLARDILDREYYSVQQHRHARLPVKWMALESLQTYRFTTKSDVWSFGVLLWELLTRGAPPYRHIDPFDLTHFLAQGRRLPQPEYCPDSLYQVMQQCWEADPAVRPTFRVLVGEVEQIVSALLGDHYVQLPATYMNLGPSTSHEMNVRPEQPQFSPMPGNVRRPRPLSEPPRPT
The experiment in a line: sfRON cell mechanistic assay (HeLa), phosphorylated RON ELISA. Particulars: HeLa cells transfected with sfRON; inhibition of phosphorylated RON; four hours incubation; at least duplicate experiments; read-out: sfRON mech IC50. Here is the method:
The cellular activity of the compounds of the present invention against RON may be determined by the following procedure. HeLa cells were plated in Falcon 3072 96-well plates in growth media (DMEM, 10% FBS, 1% L-glutamine) at a density of 10000 cells/well and incubated at 37° C., 5% CO2 overnight. The following day, cells were transfected with 0.2 μg sfRON-pcDNA plasmid DNA with 0.5 μL Lipofectamine-2000 per well in the presence of 50 μL OPTI-MEM, incubated at 37° C., 5% CO2 overnight. Costar 3915 96-well assay plates were coated with rabbit Anti-RON antibody at 2.0 μg/mL, sealed, and incubated overnight at 4° C. On the third day, coated plates were washed with PBS and blocked with 3% BSA. For the sfRON transfected cells, one-tenth volume of a 10× concentration of compounds was added to the wells in a 6-point dilution series. The dilution series was composed of an initial 1:5 dilution of a 10 mM DMSO stock solution of compound in DMSO, followed by a 1:10 dilution in growth media, for a final DMSO concentration on cells of 0.5%. Control wells were treated with 0.5% DMSO. The typical range of dilution was 10 μM to 3 nM. Once compound was added to the cells, plates were incubated for four hours at 37° C., 5% CO2. Plates were then washed in PBS, and lysed in triton-based lysis buffer. Lysates were transferred to the blocked capture plates. The phosphorylated RON levels were measured by incubating with a Goat polyclonal antibody against phosphorylated RON ([pYpY1238/1239]) followed by an anti-Goat antibody conjugated to HRP. Signal was measured on a Wallac Victor plate reader with luminance. The DMSO signal of the control wells was defined as 100% and the percent of inhibition of phosphorylated RON was expressed as percent of control. IC50 values were determined from the percent of control data using a standard four-parameter model.
The IC50 values of exemplary compounds of the present invention determined in a sfRON cell mechanistic assay using the HeLa cell line according to the procedures described herein in at least duplicate experiments are abbreviated as follows and are shown in Table 3: A, IC50≦0.2 μM; B, 0.2 μM<IC50≦1.0 μM; C, IC50>1 μM; ND, not determined. The Example # of Table 3 corresponds to the compound example number as illustrated in the Examples section.

As for `COc1ccc(F)c(Cl)c1[C@@H](C)c1c[nH]c2ncc(-c3c(C)nn([C@H]4CC[C@H](C(=O)O)CC4)c3C)cc12` [Example 25, trans-4-(4-{3-[(1S)-1-(2-Chloro-3-fluoro-6-methoxyphenyl)ethyl]-1H-pyrrolo[2,3-b]pyridin-5-yl}-3,5-dimethyl-1H-pyrazol-1-yl)cyclohexanecarboxylic acid], the half-inhibitory concentration (IC50) in the test on Karpas-299 cells was at most 50 nM.

Regarding `CCOC(=O)[C@H]1CC[C@H](n2nc(C)c(-c3cnc4[nH]cc([C@H](C)c5c(OC)ccc(F)c5Cl)c4c3)c2C)CC1` [Example 26, Ethyl trans-4-(4-{3-[(1S)-1-(2-chloro-3-fluoro-6-methoxyphenyl)ethyl]-1H-pyrrolo[2,3-b]pyridin-5-yl}-3,5-dimethyl-1H-pyrazol-1-yl)cyclohexanecarboxylate], the IC50 in the test on Karpas-299 cells was at most 50 nM.

As to `COc1ccc(F)c(Cl)c1[C@@H](C)c1c[nH]c2ncc(-c3cnn(C[C@H](O)CO)c3C(F)(F)F)cc12` [Example 36, (2S)-3-[4-{3-[(1S)-1-(2-Chloro-3-fluoro-6-methoxyphenyl)ethyl]-1H-pyrrolo[2,3-b]pyridin-5-yl}-5-(trifluoromethyl)-1H-pyrazol-1-yl]propane-1,2-diol], the 50% inhibitory concentration (IC50) with MKN45 cells fell in the range of 50 to 200 nM; in the test on Karpas-299 cells it was 200 to 1000 nM.

Consider `COc1ccc(F)c(Cl)c1[C@@H](C)c1c[nH]c2ncc(-c3cn(C[C@H](O)CO)nc3C(F)(F)F)cc12` [Example 37, (2S)-3-[4-{3-[(1S)-1-(2-Chloro-3-fluoro-6-methoxyphenyl)ethyl]-1H-pyrrolo[2,3-b]pyridin-5-yl}-3-(trifluoromethyl)-1H-pyrazol-1-yl]propane-1,2-diol], for which the IC50 in the test with MKN45 cells and in the test on Karpas-299 cells was 200 to 1000 nM in each case.

As to `COc1ccc(F)c(Cl)c1[C@@H](C)c1c[nH]c2ncc(-c3cnn([C@H]4CC[C@H](O)CC4)c3C(F)(F)F)cc12` [Example 40, trans-4-[4-{3-[(1S)-1-(2-Chloro-3-fluoro-6-methoxyphenyl)ethyl]-1H-pyrrolo[2,3-b]pyridin-5-yl}-5-(trifluoromethyl)-1H-pyrazol-1-yl]cyclohexanol], the half-inhibitory concentration (IC50) is above 1000 nM at RON, 50 to 200 nM in the test on MKN45 cells and above 1000 nM in the test with Karpas-299 cells.

As to `COc1ccc(F)c(Cl)c1[C@@H](C)c1c[nH]c2ncc(-c3cnn([C@H]4CC[C@@H](N5CCNCC5)CC4)c3C)cc12` [Example 56, 3-[(1S)-1-(2-Chloro-3-fluoro-6-methoxyphenyl)ethyl]-5-{5-methyl-1-[cis-4-(piperazin-1-yl)cyclohexyl]-1H-pyrazol-4-yl}-1H-pyrrolo[2,3-b]pyridine], the concentration for half-maximal inhibition (IC50) at RON was above 1000 nM; in the test on MKN45 cells it was 50 to 200 nM; in the test with Karpas-299 cells, 50 to 200 nM.

For the compound `[2H]c1[nH]c2ncc(-c3cnn([C@H]4CC[C@H](O)CC4)c3C)cc2c1[C@H](C)c1c(OC(F)F)ccc(F)c1Cl` [Example 94, trans-4-{-4-[3-{(1S)-1-[2-Chloro-6-(difluoromethoxy)-3-fluorophenyl]ethyl}(2-^2H)-1H-pyrrolo[2,3-b]pyridin-5-yl]-5-methyl-1H-pyrazol-1-yl}cyclohexanol], the concentration for half-maximal inhibition (IC50) in the test on MKN45 cells and in the test with Karpas-299 cells was at most 50 nM in each case.

For the compound `[2H]c1[nH]c2ncc(-c3cnn([C@H]4CC[C@H](O)CC4)c3C)cc2c1[C@@H](C)c1c(OC(F)F)ccc(F)c1Cl` [Example 95, trans-4-{-4-[3-{(1R)-1-[2-Chloro-6-(difluoromethoxy)-3-fluorophenyl]-ethyl}(2-^2H)-1H-pyrrolo[2,3-b]pyridin-5-yl]-5-methyl-1H-pyrazol-1-yl}cyclohexanol], the half-inhibitory concentration (IC50) with MKN45 cells and in the test with Karpas-299 cells was 200 to 1000 nM throughout.

Turning to `Cc1c(-c2cnc3[nH]cc([C@@H](C)c4c(OC(F)F)ccc(F)c4Cl)c3c2)cnn1[C@H]1CC[C@H](O)CC1` [Example 98, trans-4-[4-(3-{(1R)-1-[2-Chloro-6-(difluoromethoxy)-3-fluorophenyl]ethyl}-1H-pyrrolo[2,3-b]pyridin-5-yl)-5-methyl-1H-pyrazol-1-yl]cyclohexanol], in the test with MKN45 cells, the IC50 was above 1000 nM.

For the compound `Cc1c(-c2cnc3[nH]cc([C@@H](CF)c4c(Cl)ccc(F)c4Cl)c3c2)cnn1[C@H]1CC[C@H](O)CC1` [Example 117, trans-4-(4-{3-[(1R)-1-(2,6-dichloro-3-fluorophenyl)-2-fluoroethyl]-1H-pyrrolo[2,3-b]pyridin-5-yl}-5-methyl-1H-pyrazol-1-yl)cyclohexanol], the IC50 with MKN45 cells and with Karpas-299 cells was above 1000 nM throughout.
